Assay results: ChEMBL document CHEMBL5360550 (Eur J Med Chem, 2023)
Activity calls are given as the source filed them. No cut-off for these calls is given here.

Columns and labels:
[1] = tested on: Trypanosoma brucei rhodesiense; assay: Antiprotozoal activity against long slender blood stream form Trypanosoma brucei rhodesiense STIB900 assessed as parasite growth inhibition incubated for 70 hrs by resazurin based microplate fluorometer analysis; assay type: functional, organism-based; conditions: STIB900, 70 h
Plasmodium falciparum = assay: Antiprotozoal activity against chloroquine resistant Plasmodium falciparum K1 infected in human erythrocytes assessed as parasite growth inhibition incubated for 48 hrs by [3H]-hypoxanthine incorporation assay based Betaplate liquid scintillation counter method; assay type: functional, organism-based; conditions: K1, Erythrocyte
[2] = Cytotoxicity against rat L6 cells assessed as reduction in cell viability incubated for 70 hrs by Alamar blue based microplate fluorescence assay; assay type: toxicity
[3] = Selectivity index, ratio of IC50 for cytotoxicity against rat L6 cells to IC50 for antiprotozoal activity against long slender blood stream form Trypanosoma brucei rhodesiense STIB900; assay type: toxicity, cell-based; conditions: read-out: Ratio IC50
[4] = Selectivity index, ratio of IC50 for cytotoxicity against rat L6 cells to IC50 for antiprotozoal activity against chloroquine resistant Plasmodium falciparum K1 infected in human erythrocytes; assay type: toxicity, cell-based; conditions: read-out: Ratio IC50
[5] = tested on: Trypanosoma brucei rhodesiense; assay: In vivo antiprotozoal activity against acute hemolymphatic stage Trypanosoma brucei rhodesiense STIB900 infected in NMRI mouse assessed as reduction of parasitaemia at 5 mg/kg, ip for 4 days consecutive and measured upto 60 days relative to control; assay type: functional
AT rich DNA [6] = tested on: AT rich DNA
Description: Binding affinity to double stranded [poly(dA-dT)2] DNA (unknown origin) minor groove assessed as increase in melting temperature by spectrophotometer analysis

AT rich DNA [7] = assay: Binding affinity to double stranded [poly(dA-dT)2] DNA (unknown origin) minor groove assessed as increase in positive induced CD signal in 360 to 400 nanometer absorption range incubated for 10 mins by circular dichroism spectroscopy; assay type: nucleic-acid assay
[8] = tested on: Trypanosoma brucei rhodesiense; assay: In vivo antiprotozoal activity against acute hemolymphatic stage Trypanosoma brucei rhodesiense STIB900 infected in NMRI mouse assessed as reduction of parasitaemia at 10 mg/kg, ip for 4 days consecutive and measured upto 60 days relative to control; assay type: functional; parameters: scale not given: the % may be the effect or the level left; conditions: time 4 day

| SMILES | IC50 [1] [nM] | IC50 (Plasmodium falciparum) [nM] | IC50 at 70 h [2] [nM] | selectivity ratio [3] | selectivity ratio [4] | Activity ([5]; time 4.0 day) | ΔTm (AT rich DNA [6]) [°C] | Activity (AT rich DNA [7]) | Activity ([5]; time 4 day) [%] | Activity [8] [%] |
| --- | --- | --- | --- | --- | --- | --- | --- | --- | --- | --- |
| N=C(N)c1ccc2cc(-c3ccc(-c4ccc(C(=N)N)nc4)o3)[nH]c2c1 | 7 | 3.6 | 14200 | 2030 | 3940 | inactive | 28 |  |  |  |
| COc1cc(C(=N)N)ccc1-c1ccc(-c2cc3ccc(C(=N)N)cc3[nH]2)o1 | 39 |  | 11000 | 283 |  |  | 27 |  |  |  |
| N=C(N)c1ccc(-c2ccc(-c3cc4ccc(C(=N)N)cc4[nH]3)s2)cc1 | 12 | 7.2 | 12400 | 1030 | 1720 | inactive | > 30 | Active |  |  |
| N=C(N)c1ccc(-c2ccc(-c3cc4ccc(C(=N)N)cc4[nH]3)o2)cc1 | 12 | 4.6 | 12900 | 1080 | 2800 | inactive | > 30 | Active |  |  |
| Cc1cc(C(=N)N)ccc1-c1ccc(-c2cc3ccc(C(=N)N)cc3[nH]2)o1 | 6 |  | 5100 | 850 |  | inactive | > 30 |  |  |  |
| N=C(N)c1ccc(-c2ccc(-c3cc4cc(C(=N)N)ccc4[nH]3)o2)nc1 | 6 | 5.8 | 50400 | 8400 | 8690 |  | 27 |  | 75 |  |
| N=C(N)c1ccc(-c2ccc(-c3cc4ccc(C(=N)N)cc4[nH]3)s2)nc1 | 15 |  | 14500 | 966 |  | inactive | 29 |  |  |  |
| N=C(N)c1ccc(-c2ccc(-c3cc4cc(C(=N)N)ccc4[nH]3)[se]2)cc1 | 3 | 3.9 | 21500 | 7170 | 5510 |  | > 30 | Active | 50 |  |
| N=C(N)c1ccc(-c2ccc(-c3nc4cc(C(=N)N)ccc4[nH]3)o2)cc1 | 122 | 95.8 | 10100 | 82 | 105 |  | 25 |  | 25 |  |
| N=C(N)c1ccc(-c2ccc(-c3cc4cc(C(=N)N)ccc4[nH]3)s2)cc1 | 6 | 2.8 | 17000 | 2830 | 6070 |  | 29 |  | 50 |  |
| N=C(N)c1ccc(-c2ccc(-c3cc4ccc(C(=N)N)cc4[nH]3)o2)nc1 | 17 | 6.4 | 34800 | 2050 | 5440 |  | 28 | Active | 75 |  |
| N=C(N)c1ccc(-c2ccc(-c3nc4ccc(C(=N)N)cc4[nH]3)s2)cc1 | 27 | 11.8 | 22400 | 829 | 1900 |  | > 30 |  |  | 75 |
| N=C(N)c1ccc(-c2ccc(-c3ccc(C(=N)N)cc3)o2)cc1 [FURAMIDINE] |  |  |  |  |  |  | 25 |  | 25 |  |
| N=C(N)c1ccc(-c2ccc(-c3cc4cc(C(=N)N)ccc4[nH]3)o2)cc1 | 2 | 2.8 | 14200 | 7100 | 5070 |  | 29 | Active | 75 |  |
